Measurements published in US7148020B2, “Triple polypeptide complexes” (Arexis AB, priority 2001, dated 2006).
Ends that are not written are not given here.

Key:
[1] = tested on: CII(256-270)/Aq-specific T cell hybridoma cells; experiment: Antigen presentation, IL-2 production of T cell hybridoma measured by ELISA; assay type: cell-based, mice
Experimental: Antigen-presentation of polypeptides and triple helical polypeptide complexes was studied using A^q-restricted HDQ.9, A^q-restricted HRC.2, A^q-restricted HCQ.4, and DR4-restricted 1259 T cell hybridomas. Briefly, A^q-restricted spleen cells were derived from DBA/1 mice, and DR4-restricted spleen cells were derived from DR4^+/_H-2^−/_mice. T cell hybridoma cells (5×10^4 cells/well) were incubated with polypeptides and polypeptide complexes (20 μg/mL, dilution 1:5) and 5×10^5 spleen cells per well (normal or fixed in 1% paraformaldehyde for 15 min at room temperature) in a volume of 200 μL in 96-well plates for 24 hours. The reactivity of the hybridoma cells toward the polypeptides and triple helical polypeptide complexes, reflected by IL-2 production, was measured by ELISA using europium-labeled streptavidin (WALLAC, Turku).

[2] = tested on: HCQ.4 T cell hybridoma cells; experiment: T cell hybridoma stimulation with Langerhans cells, IL-2 by CTLL assay; assay type: cell-based, mice; settings: 10 μg/mL, Langerhans cells as antigen presenting cells, 24 hours (FIG. 3)
Experimental: Langerhans cells (dendritic cells) were prepared from ear skin of B10Q×DBA/1 mice and purified with selection on N418 marker. Once purified, Langerhans cells were mixed with HCQ.4 T cell hybridoma cells (1×10^5 cell/well), and the mixture incubated with media containing 10 μg/mL of [(Gly-Pro-Hyp)5-CII(259-274)-(Gly-Pro-Hyp)2]3LAhx (a linked polypeptide), CII(259-270) (an unlinked polypeptide), or native rat CII for 24 hours. After the 24-hour incubation, 0.5 μCi ^3H-thymidine/well (Radiochemical Centre, Amersham,UK) was added, and the cells incubated for an additional 18 hours. After this incubation, the supernatants were assayed for IL-2 content using a CTLL assay. Results were presented as means of duplicates.

[3] = tested on: C3H.Q mice, arthritis induced with rat CII; experiment: Vaccination of adult mice, arthritis induced with rat CII; assay type: in vivo
Experimental: Male and female C3H.Q mice were used in two separate experiments. In each experiment, adult mice 8–12 weeks old were injected intradermally at the base of the tail with CII(256-270) (unlinked polypeptides), [(Gly-Pro-Hyp)5-CII(259-274)-(Gly-Pro-Hyp)2]3LAhx (linked polypeptides), or PBS. Specifically, each mouse received 100 μL of PBS or 100 μL of polypeptide (100 μg) emulsified in incomplete Freund's adjuvant.
After three weeks, the mice were treated with rat CII emulsified in complete Freund's adjuvant. Specifically, each mouse received 100 μL containing 100 μg of rat CII injected intradermally around the base of the tail. […] In addition, five weeks after treating the mice with rat CII, blood samples were collected to determine the antibody response.

C1 mAb and M2.139 mAb = experiment: Immunoreactivity of conformation dependent monoclonal antibodies on coated microtiter wells; assay type: binding, mouse; settings: compared with native CII (FIG. 8)
Experimental: Microtiter plates (Nunc, Wiesbaden, Germany) were coated overnight with [(Gly-Pro-Hyp)5-CII(358-366Hyp-369)-(Gly-Pro-Hyp)2]3LAhx or [(Gly-Pro-Hyp)5-CII(551-552Hyp-564)-(Gly-Pro-Hyp)2]3LAhx at 4° C. and blocked with 2% BSA in phosphate buffered saline (PBS, pH 7.4) for one hour. The presentation of a native collagen conformation on the plastic surface of the microtiter well was controlled by the immunoreactivity of two mouse monoclonal antibodies (C1 mAb having specificity for the CII(358-369) region and M2.139 mAb having specificity for the CII(551-564) region) that recognize the CII epitopes in a conformation dependent manner as confirmed in FIG. 8. Identical titration curves for the native CII and the synthetic polypeptides indicate that the synthetic polypeptides have a perfect image of the conformational epitope. […] Heat denaturation was achieved by heating the CII polypeptide to greater than 50° C. for two hours prior to the coating of the microtiter wells.

[4] = tested on: monoclonal anti-CII antibody 122.9; experiment: ELISA, coated polypeptide complexes capture anti-CII monoclonal antibody; assay type: binding; settings: monoclonal antibody 122.9, Rat; coated wells
Excerpt: (§1) Triple helical polypeptide complexes [(Gly-Pro-Hyp)5-CII(358-366Hyp-369)-(Gly-Pro-Hyp)2]3LAhx, [(Gly-Pro-Hyp)5-CII(259-273Hyp-274)-(Gly-Pro-Hyp)2]3LAhx, [(Gly-Pro-Hyp)5-CII(259-273Hyp-274)-CII(359-366Hyp)-(Gly-Pro-Hyp)2]3LAhx, [(Gly-Pro-Hyp)5-CII(494-504Hyp)-(Gly-Pro-Hyp)2]3LAhx, and [(Gly-Pro-Hyp)5-CII(551-552Hyp-564)-(Gly-Pro-Hyp)2]3LAhx were used in an ELISA to detect anti-CII-antibodies. Specifically, Immulon2 HB (Dynex/Technologies Inc., USA) plates were coated with [(Gly-Pro-Hyp)5-CII(358-366Hyp-369)-(Gly-Pro-Hyp)2]3LAhx, [(Gly-Pro-Hyp)5-CII(259-273Hyp-274)-(Gly-Pro-Hyp)2]3LAhx, [(Gly-Pro-Hyp)5-CII(259-273Hyp-274)-CII(359-366Hyp)-(Gly-Pro-Hyp)2]3LAhx, [(Gly-Pro-Hyp)5-CII(494-504Hyp)-(Gly-Pro-Hyp)2]3LAhx, and [(Gly-Pro-Hyp)5-CII(551-552Hyp-564)-(Gly-Pro-Hyp)2]3LAhx in a volume of 50 μL/well and at a concentration of 5 μg/mL. Wells coated with native rat CII (rCII; 10 μg/mL) were used as a positive control, while negative controls included wells coated with native rat type I collagen (rCI; 10 μg/mL) and wells coated with phosphate-buffered saline (PBS; pH 7.4).
(§2) After coating, the plates were incubated for at least one hour in a humid chamber at 4° C. After incubation, the plates were washed three times with PBS using an automatic microtiter plate-washing device (Skan Washer 300, Skatron instruments) and incubated with 50 μL/well of bovine serum albumin (BSA; Sigma, St. Louis, Mo.; 10 mg/mL in PBS) for two hours at 20° C. The wells were washed five times with PBS using ELISA washing equipment (Skatron, Norway) and incubated with a monoclonal anti-CII antibody (50 μL/well in titrated concentrations) for two hours at 20° C. After this two hour incubation, the plates were washed with PBS-Tween and incubated with a secondary enzyme-labeled antibody for two hours at 20° C. For detection of mouse antibodies, peroxidase labeled goat anti-mouse IgG (H+L) (Jackson ImmunoResearch Laboratories, Inc., USA) were used. For detection of rat antibodies, peroxidase labeled goat anti-rat IgG (H+L) (Jackson ImmunoResearch Laboratories, Inc. USA) were used.
(§3) After washing the wells with PBS, the assay was developed using the ABTS system (Boehringer-Mannheim, Mannheim, Germany), and the absorbance levels determined at 405 nm (ELISA reader, Titertek). Titers and concentrations of the monoclonal antibodies were calculated using limiting dilution (ELISA software: HyperELISA 3.0).

[5] = tested on: monoclonal anti-CII antibody 125.5; experiment: as above; assay type: binding; settings: monoclonal antibody 125.5, Rat; coated wells
Excerpt: as §1, §2, §3

[6] = tested on: monoclonal anti-CII antibody 126.30; experiment: as above; assay type: binding; settings: monoclonal antibody 126.30, Rat; coated wells
Excerpt: as §1, §2, §3

[7] = tested on: monoclonal anti-CII antibody 126.35; experiment: as above; assay type: binding; settings: monoclonal antibody 126.35, Rat; coated wells
Excerpt: as §1, §2, §3

[8] = tested on: monoclonal anti-CII antibody 145.322; experiment: as above; assay type: binding; settings: monoclonal antibody 145.322, Rat; coated wells
Excerpt: as §1, §2, §3

[9] = tested on: monoclonal anti-CII antibody 146.50; experiment: as above; assay type: binding; settings: monoclonal antibody 146.50, Rat; coated wells
Excerpt: as §1, §2, §3

[10] = tested on: monoclonal anti-CII antibody EB2; experiment: as above; assay type: binding; settings: monoclonal antibody EB2, Mouse; coated wells
Excerpt: as §1, §2, §3

[11] = tested on: monoclonal anti-CII antibody EB63; experiment: as above; assay type: binding; settings: monoclonal antibody EB63, Mouse; coated wells
Excerpt: as §1, §2, §3

[12] = tested on: monoclonal anti-CII antibody M2 139; experiment: as above; assay type: binding; settings: monoclonal antibody M2 139, Mouse; coated wells
Excerpt: as §1, §2, §3

[13] = tested on: monoclonal anti-CII antibody M2 76; experiment: as above; assay type: binding; settings: monoclonal antibody M2 76, Mouse; coated wells
Excerpt: as §1, §2, §3

[14] = tested on: monoclonal anti-CII antibody M2 84; experiment: as above; assay type: binding; settings: monoclonal antibody M2 84, Mouse; coated wells
Excerpt: as §1, §2, §3

[15] = tested on: monoclonal anti-CII antibody M2 87; experiment: as above; assay type: binding; settings: monoclonal antibody M2 87, Mouse; coated wells
Excerpt: as §1, §2, §3

[16] = tested on: monoclonal anti-CII antibody M2 88; experiment: as above; assay type: binding; settings: monoclonal antibody M2 88, Mouse; coated wells
Excerpt: as §1, §2, §3

CD4+ T cells = experiment: IL-2 response of CD4+ T cells upon in vitro stimulation, two-color flow cytometry; assay type: cell-based, human; settings: 10 μg per mL plus anti-CD28
HCQ.10 hybridoma = experiment: Detection of transgenic CII from skin grafts by T cell hybridoma, CTLL assay; assay type: cell-based, mice; settings: HCQ.10, specific for glycosylated CII(256-270)
Experimental: (§4) T cell hybridomas HCQ.4 and HCQ.10, specific for CII(256-270) without posttranslational modification and with glucose on hydroxylysin at position K264 respectively, were used to detect transgenic […] prepared from TSC or recipients grafts at the end of arthritis experiments as described earlier (Michaelsson et al., J. Exp. Med., 180:745–749 (1994) and Corthay et al., Eur. J. Immunol., 28:2580–2590 (1998)). Briefly, syngeneic spleen cells were incubated with titrated amount of antigen at 5×10^5/mL together with the hybridoma cells at 5×10^4/mL. The interleukin-2 production was detected after 24 hours by transferring 100 μL of the supernatant to new plates. Plates were snap-frozen to avoid any contamination of living cells before addition of 10^4 CTLL/well. CTLL were incubated for 24 hours before thymidine-labeling and harvesting 15–18 hours later.

HCQ.4 hybridoma = experiment: as above; assay type: cell-based, mice; settings: HCQ.4, specific for non-glycosylated CII(256-270)
Experimental: as §4

Substance: GEPGIAGFKGEQGPK [CII(256-270), non-glycosylated, unlinked polypeptide]
- stimulation of T cell hybridoma cells (IL-2 production) ([1]; non-fixed APC): potent stimulators
- stimulation of T cell hybridoma cells (IL-2 production) ([1]; presented by formalin-fixed spleen cells (FIGS. 25–26)): stimulated

Substance: [(Gly-Pro-Hyp)5-CII(259-274)-(Gly-Pro-Hyp)2]3LAhx [linked polypeptide composition]
- stimulation of T cells (IL-2 content, CTLL assay, CPM) [2]: stimulated T cells
- development of arthritis ([3]; adult C3H.Q mice, 100 μg intradermally in incomplete Freund's adjuvant (FIG. 6)): abrogated development of arthritis
- antibody response ([3]; five weeks after treating the mice with rat CII): lower

Substance: heat denatured CII: CII polypeptide heated to greater than 50° C. for two hours prior to coating
- binding of C1 mAb / M2.139 mAb, titration curves (C1 mAb and M2.139 mAb): does not bind

Substance: rCII: native rat type II collagen, positive control
- end point titer value in ng antibody/mL [4]: 10 ng antibody/mL
- end point titer value in ng antibody/mL [5]: 10 ng antibody/mL
- end point titer value in ng antibody/mL [6]: 10 ng antibody/mL
- end point titer value in ng antibody/mL [7]: 10 ng antibody/mL
- end point titer value in ng antibody/mL [8]: 100 ng antibody/mL
- end point titer value in ng antibody/mL [9]: 100 ng antibody/mL
- end point titer value in ng antibody/mL [10]: <10 ng antibody/mL
- end point titer value in ng antibody/mL [11]: 100 ng antibody/mL
- end point titer value in ng antibody/mL [12]: 10 ng antibody/mL
- end point titer value in ng antibody/mL [13]: 10 ng antibody/mL
- end point titer value in ng antibody/mL [14]: 10 ng antibody/mL
- end point titer value in ng antibody/mL [15]: 10 ng antibody/mL
- end point titer value in ng antibody/mL [16]: 10 ng antibody/mL
- stimulation of T cells (IL-2 content, CTLL assay, CPM) [2]: did not

Substance: tetanus toxoid [TT]
- IL-2 response of CD4+ T cells (percent of IL-2-producing CD4+ T cells) (CD4+ T cells; patient RA 1): 0.38%
- IL-2 response of CD4+ T cells (percent of IL-2-producing CD4+ T cells) (CD4+ T cells; patient RA 2): 0.61%
- IL-2 response of CD4+ T cells (percent of IL-2-producing CD4+ T cells) (CD4+ T cells; patient RA 3): 0.20%

Substance: whole CII protein: whole type II collagen protein
- stimulation of hybridoma (IL-2, CTLL assay) (HCQ.10 hybridoma): respond
- stimulation of hybridoma (IL-2, CTLL assay) (HCQ.4 hybridoma): respond
